Reference: paper PMC6161789, “Modeling and antitumor studies of a modified L–penetratin peptide targeting E2F in lung cancer and prostate cancer” (Oncotarget, 2018)
Ends that are not written are not given here.

How the values were obtained:
[1] = test system: pRB negative small cell lung cancer (SCLC) cells; conditions: cited from earlier work
Excerpt: (§1) This unique E2F1 inhibitory peptide with the sequence His-His-His-Arg-Leu-Ser-His, found by phage display, was discovered by its ability to bind tightly to an immobilized consensus E2F1 promoter sequence. Importantly, treatment of tumor xenografts of human small cell lung cancer H69 and human prostate cancer DU14 ...

Burkitt lymphoma cells = conditions: cited from earlier work
Excerpt: as §1

[2] = test system: DU145 prostate cancer cells; conditions: cited from earlier work
Excerpt: as §1

DU145 cells = assay: Stability testing of the peptide in RPMI 1640 with 10% FBS, read out by DU145 cell viability; type: in vitro ADME, human; conditions: pre-incubation in RPMI 1640 with 10% FBS, 37°C, 24 hours; then 24 hours on DU145 cells, MTS 490 nm, triplicate
Description: Figure 4 A. D- Arg Peptide incubated in 10% FBS RPMI media at 37°C for 24 hours is resistant to proteolysis; it is as effective as the non-incubated D- Arg Peptide in DU145 cells. D- Arg Peptide was incubated in RPMI media containing 10% FBS at 37°C for 24 hours. DU145 cells were seeded in a 96 well plate at 5000 cells in each well. After 24 hours either the incubated D- Arg Peptide or the non-incubated D- Arg Peptide was added to the cells. B. D- Arg and L-Arg Peptide incubated in 10% FBS RPMI media at 37°C for 24 hours. DU145 cells were seeded in a 96 well plate at 5000 cells in each well. After 24 hours either the incubated D- Arg Peptide or the L- Arg Peptide was added to the cells. The cell viability in both experiments were assessed after another 24 hours by measuring the absorption at 490nm using the MTS tetrazolium Promega CellTitre 96® Aqueous One Solution Cell proliferation assay according to the manufacturer’s instructions. Each time point was done in triplicate and values are represented by mean with standard mean deviation.
The peptide was mixed with the RPMI 1640 medium containing 10% FBS and incubated at 37 °C for 24 hours. Cells were plated in a 96 well plate in 180 μl of the media containing 10% FBS. After 24 hours, 20 μl of either the incubated D- Arg or the regular (fresh) D- Arg Peptide was added to the cell plate and tested after another 24 hours. Then 20 μl of the MTS tetrazolium Promega CellTitre 96® Aqueous One Solution Cell Proliferation Assay was added to each well and incubated for two to three hours. Absorbance was measured at 490 nm as per the manufacturer’s protocol to determine the cell viability.

[3] = test system: consensus E2F1 promoter sequence; conditions: found by phage display; cited from earlier work
Excerpt: as §1

Compound | Cytotoxicity [1] | Cytotoxicity (Burkitt lymphoma cells) | Cytotoxicity [2] | Stability in serum: incubated D- Arg versus incubated L- Arg peptide (DU145 cells) | Stability: toxicity of pre-incubated versus fresh non-incubated peptide (DU145 cells) | Binding to immobilized consensus E2F1 promoter sequence [3]
CC[C@H](C)[C@H](NC(=O)[C@H](CCCCN)NC(=O)[C@@H](NC(=O)[C@H](CCC(N)=O)NC(=O)[C@@H](N)CCCNC(=N)N)[C@@H](C)CC)C(=O)N[C@@H](Cc1c[nH]c2ccccc12)C(=O)N[C@@H](Cc1ccccc1)C(=O)N[C@@H](CCC(N)=O)C(=O)N[C@@H](CC(N)=O)C(=O)N[C@@H](CCCNC(=N)N)C(=O)N[C@@H](CCCNC(=N)N)C(=O)N[C@@H](CCSC)C(=O)N[C@@H](CCCCN)C(=O)N[C@@H](Cc1c[nH]c2ccccc12)C(=O)N[C@@H](CCCCN)C(=O)N[C@@H](CCCCN)C(=O)N[C@@H](Cc1c[nH]cn1)C(=O)N[C@@H](Cc1c[nH]cn1)C(=O)N[C@@H](Cc1c[nH]cn1)C(=O)N[C@@H](CCCNC(=N)N)C(=O)N[C@@H](CC(C)C)C(=O)N[C@@H](CO)C(=O)N[C@@H](Cc1c[nH]cn1)C(=O)O [L-Arg PEP] | cytotoxic at low micro molar concentrations | cytotoxic at low micro molar concentrations | cytotoxic at low micro molar concentrations | unstable in serum |  | 
CC[C@H](C)[C@H](NC(=O)[C@H](CCCCN)NC(=O)[C@@H](NC(=O)[C@H](CCC(N)=O)NC(=O)[C@@H](N)CCCNC(=N)N)[C@@H](C)CC)C(=O)N[C@@H](Cc1c[nH]c2ccccc12)C(=O)N[C@@H](Cc1ccccc1)C(=O)N[C@@H](CCC(N)=O)C(=O)N[C@@H](CC(N)=O)C(=O)N[C@@H](CCCNC(=N)N)C(=O)N[C@@H](CCCNC(=N)N)C(=O)N[C@@H](CCSC)C(=O)N[C@@H](CCCCN)C(=O)N[C@@H](Cc1c[nH]c2ccccc12)C(=O)N[C@@H](CCCCN)C(=O)N[C@@H](CCCCN)C(=O)N[C@@H](Cc1c[nH]cn1)C(=O)N[C@@H](Cc1c[nH]cn1)C(=O)N[C@@H](Cc1c[nH]cn1)C(=O)N[C@H](CCCNC(=N)N)C(=O)N[C@@H](CC(C)C)C(=O)N[C@@H](CO)C(=O)N[C@@H](Cc1c[nH]cn1)C(=O)O [D-Arg PEP] |  |  |  | more resistant to proteolysis after pre-incubation in serum | as potent as the non-incubated fresh D- Arg PEP | 
HHHRLSH [E2F1 inhibitory peptide, 7-mer peptide His-His-His-Arg-Leu-Ser-His found by phage display] |  |  |  |  |  | bind tightly
